Measured values: US8445480B2, “CETP inhibitors derived from benzoxazole arylamides” (Merck Sharp & Dohme Corp., priority 2007, dated 2013)

target: T1, recombinant human CETP (Homo sapiens, UniProt P11597); assay: CETP assay, in vitro continuous fluorescence assay of CE transfer (BODIPY-CE donor particles); assay type: biochemical; conditions: CE transfer reaction, 3% human serum, 25° C.; read-out: IC50 value as measured for the CE transfer reaction
T1 construct: made in house; host or cells: CHO cells
T1 sequence (P11597 18-493): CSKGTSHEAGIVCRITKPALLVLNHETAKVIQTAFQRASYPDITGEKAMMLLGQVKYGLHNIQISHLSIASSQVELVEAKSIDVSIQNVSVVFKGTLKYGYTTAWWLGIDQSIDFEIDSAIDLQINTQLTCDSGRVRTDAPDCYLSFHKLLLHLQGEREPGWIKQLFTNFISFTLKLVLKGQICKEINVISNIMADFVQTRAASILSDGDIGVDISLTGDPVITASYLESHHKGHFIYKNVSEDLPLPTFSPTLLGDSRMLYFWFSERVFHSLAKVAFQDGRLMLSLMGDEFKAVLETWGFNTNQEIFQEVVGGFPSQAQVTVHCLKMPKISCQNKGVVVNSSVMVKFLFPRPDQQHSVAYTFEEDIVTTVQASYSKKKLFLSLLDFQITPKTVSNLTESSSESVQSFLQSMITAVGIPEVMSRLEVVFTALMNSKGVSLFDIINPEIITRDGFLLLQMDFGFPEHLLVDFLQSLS
Procedure: An in vitro continuous assay for determining IC50's to identify compounds that are CETP inhibitors was performed based on a modification of the method described by Epps et al. employing BODIPY®-CE as the cholesteryl ester lipid donor and BODIPY®-TG as the triglyceride lipid donor. See Epps et al. (1995) Method for measuring the activities of cholesteryl ester transfer protein (lipid transfer protein), Chem. Phys. Lipids. 77, 51-63.
Particles used in the assay were created from the following materials by probe sonication essentially as described by Epps et al. Synthetic cholesteryl ester (CE) donor HDL particles contained DOPC (Dioleoyl Phosphatidyl Choline), BODIPY®-CE (Molecular Probes C-3927), triolein (a triglyceride), dabcyl dicetylamide, (a non-diffusible quencher molecule to reduce background fluorescence) and apoHDL. Synthetic triglyceride (TG) donor HDL particles contained DOPC, BODIPY®-TG, and apoHDL. […] Particle concentrations were expressed in terms of protein concentration as determined by BCA assay (Pierce, USA). […]
Assays were performed in Dynex Microfluor 2 U-bottom black 96-well plates (Cat #7205). […] CE transfer reactions were performed as follows: final concentrations of materials were: 2.5 ng/μCE donor particles, 7.5 ng/μL acceptor particles (each expressed by protein content), 1×CETP buffer, 14-30 nM recombinant human CETP (expressed in CHO cells and partially purified), and up to 2% DMSO when testing compounds; reactions were followed in a fluorescence plate reader (Molecular Devices Spectramax GeminiXS) set for a 45 minute kinetic run at 25° C. which read the samples every 45 sec at Ex=480 nm, Em=511 nm, with a cutoff filter at 495 nm, photomultiplier tube setting of medium, calibration on, and 6 reads/well. […] TG transfer was measured at an excitation wavelength of 538 nm while reading emission at 568 nm every 45 sec for 45 min at 37° C. with a cutoff filter at 550 nm.
Data were evaluated by obtaining an initial rate, expressed in relative fluorescence units per second, for the pseudolinear portion of the curve, often 0-500 or 1000 sec. […]

| SMILES | IC50 |
| --- | --- |
| CC(C)c1cc(C#N)cc2nc(-c3ccc(C(=O)NCC4CCN(c5ccc(C(F)(F)F)cn5)CC4)cc3)oc12 [Example 3] | 13 to 60 nM |
| CC(C)c1cc(C#N)cc2nc(-c3ccc(C(=O)NCC4CCN(Cc5cccc(C(F)(F)F)c5)CC4)cc3)oc12 [Example 58] | 13 to 60 nM |
| CC(C)c1cc(C#N)cc2nc(-c3ccc(C(=O)NCC4CCN(c5nccc(C(F)(F)F)n5)CC4)cc3)oc12 [Example 1, 4-(5-Cyano-7-isopropyl-1,3-benzoxazol-2-yl)-N-({1-[4-(trifluoromethyl)pyrimidin-2-yl]piperidin-4-yl}methyl)benzamide] | 13 to 60 nM |
